Earlier results as cited in patent US20070098643A1, “Oligomers of gadolinium chelates, their applicationascontrast products in magnetic resonance imaging and their synthesis intermediates” (priority 2002, published 2007).

Key:
[1] = test system: benign and malignant breast tumors; settings: in this model; Daldrup-Link et al. 2000
[2] = in vivo

C5/C0 ratio [2]: 21%
distribution volume [2]: 130 mL/kg
plasma half-life [2]: 37 min
total plasma clearance [2]: 8.1 mL/min/kg
Substance: Gadomer-17
differentiation of benign from malignant tumors in MRI [1]: does not allow such a differentiation
